Test results: patent US6071916A, “HIV protease inhibitor” (priority 1998, dated 2000)
Where a name gives a salt, the structure may show the parent alone.

Legend:
HIV protease = settings: assays described in WO 95/16688; cited from earlier work
[1] = oral absorption and bioavailability in animal models; assay type: in vivo
[2] = hydrophobic/hydrophilic nature in formulation; assay type: physicochemical; settings: dispersion during formulation; HCl (dihydrate) requires wetting agents

SMILES | inhibition of HIV protease (HIV protease) | oral absorption ([1]; oral, animal models) | hydrophobic or hydrophilic nature [2] | rate of absorption ([1]; compared with the existing HCl, HBr and methanesulfonate salts) | bioavailability ([1]; oral, animal models)
CC(C)(C)NC(=O)[C@@H]1CN(Cc2cc3ccccc3o2)CCN1C[C@@H](O)C[C@@H](Cc1ccccc1)C(=O)N[C@H]1c2ccccc2C[C@H]1O [Compound A, N-(2(R)-hydroxy-1(S)-indanyl)-2(R)-phenylmethyl-4-(S)-hydroxy-5-(1-(4-(2-benzo[b]furanylmethyl)-2(S)-N'-(t-butylcarboxamido)-piperazinyl))-pentaneamide] | potent inhibitor of HIV protease | – | – | – | –
CC(C)(C)NC(=O)[C@@H]1CN(Cc2cc3ccccc3o2)CCN1C[C@@H](O)C[C@@H](Cc1ccccc1)C(=O)N[C@H]1c2ccccc2C[C@H]1O [HCl (dihydrate) salt, reference compound] | – | poor | extremely hydrophobic | – | –
CC(C)(C)NC(=O)[C@@H]1CN(Cc2cc3ccccc3o2)CCN1C[C@@H](O)C[C@@H](Cc1ccccc1)C(=O)N[C@H]1c2ccccc2C[C@H]1O [sulfate salt] | – | much greater | hydrophilic | more rapidly absorbed than the existing HCl, HBr and methanesulfonate salts | much greater
